Experimental findings from patent publication US20220016196A1, “Aloe Based Compositions Comprising Polysaccharides and Polyphenols for Regulation of Homeostasis of Immunity” (Unigen, Inc., priority 2020, published 2022) are described below.

Each structure is given as a SMILES string.

Type in all cases: in vivo, rat
The test system of one test is IL-10. Put plainly: LPS-induced acute lung injury, BAL IL-10 ELISA. To be noted: rats, LPS 10 mg/kg i.t., 24 hours post, oral, 500 mg/kg. On the procedure: (§1) The study was designed to evaluate the direct impact of an Aloe-based composition (UP360) made in the Example 9 in alleviating LPS-induced acute lung injury administered orally at 500 mg/kg and 250 mg/kg. […] In this study, we treated rats with the test materials orally for 7 days before model induction with LPS. On the 8th day, an hour after oral treatment, LPS was instilled intratracheally (i.t.) at 10 mg/kg dissolved in 0.1 mL/100 g PBS to each rat. The normal control rats received the same volume i.t. PBS only.
(§2) We sacrificed surviving animals 24 hours after intratracheal LPS administration to the rats. At necropsy, collected bronchoalveolar lavage (BAL) by intratracheal injection of 1.5 mL PBS into the right lobe followed by gentle aspiration at least 3 times. Pooled recovered fluid, centrifuged at 1500 rpm for 10 min at 4 ° C., and was used to measure cytokines (e.g. IL-6) and pulmonary protein levels. […]
The presence of IL-10 in undiluted broncho-alveolar lavage (BAL) samples from Example 23 was measured using the Rat IL-10 Quantikine ELISA kit from R&D Systems (product #: R1000) as follows: undiluted BAL was added to a microplate coated with IL-10 antibody. […] After developing for 30 minutes at room temperature, a stop solution was added, and the absorbance was read at 450 nm. The concentration of IL-10 was calculated based on the absorbance readings of an IL-10 standard curve.
A general note: In an ELISA, binding on a coated surface is turned into a signal by an enzyme label.

A further test relates to MIP-2/CINC-3. Put plainly: LPS-induced acute lung injury, lung homogenate MIP-2/CINC-3 ELISA. The conditions noted are these: rats. On the procedure: as §1
We sacrificed surviving animals 24 hours after intratracheal LPS administration to the rats. At necropsy, collected bronchoalveolar lavage (BAL) by intratracheal injection of 1.5 mL PBS into the right lobe followed by gentle aspiration at least 3 times. […]
50 μL of each rat lung homogenate sample from Example 23 (10 per group for Vehicle, Sodium Butyrate (SB), UP360 Low dose, UP360 High dose, 7 per group for Control) and 50 μL of assay diluent buffer were added to the wells of a 96-well microplate coated with monoclonal CINC-3 antibody and allowed to bind for 2 hours. […] The absorbance of each well was read at 450 nm (with a 580 nm correction) and compared to a standard curve of CINC-3 in order to approximate the amount of CINC-3 in each rat lung homogenate sample.

A further test deals with IL-1β. Put plainly: LPS-induced acute lung injury, serum IL-1β ELISA. The conditions noted are these: rats. How it is done:
as §1, §2
The presence of IL-1β in undiluted rat serum from Example 23 was measured using the Rat IL-1β Quantikine ELISA kit from R&D Systems (product#: RLBOO) as follows: undiluted serum was added to a microplate coated with IL-1β antibody. […] After developing for 30 minutes at room temperature, a stop solution was added, and the absorbance was read at 450 nm. The concentration of IL-1β was calculated based on the absorbance readings of an IL-1β standard curve.

Test [1] has as its system LPS-induced acute lung injury rats. Put plainly: LPS-induced acute lung injury, lung histopathology (H&E). How it is done: as §1
We sacrificed surviving animals 24 hours after intratracheal LPS administration to the rats. At necropsy, collected bronchoalveolar lavage (BAL) by intratracheal injection of 1.5 mL PBS into the right lobe followed by gentle aspiration at least 3 times. Pooled recovered fluid, centrifuged at 1500 rpm for 10 min at 4 ° C., and was used to measure cytokines (e.g. IL-6) and pulmonary protein levels. This same right lobe was collected for tissue homogenization from each rat for MIP-2/CINC-3 protein analysis. The left lobe was fixed with formalin and submitted for histopathology evaluation to Nationwide Histology for analysis by a certified pathologist. Serum collected at necropsy was used to measure cytokines such as TNF-α and IL-1β.
The left lobe of the lung was used for the histopathology analysis.

The subject of the next test is IL-6. Put plainly: LPS-induced acute lung injury, BAL IL-6 ELISA. To be noted: rats. On the procedure:
as §1, §2
The presence of IL-6 in undiluted rat broncho-alveolar lavage (BAL) from Example 23 was measured using the Rat IL-6 Quantikine ELISA kit from R&D Systems (product #: R6000B) as follows: undiluted BAL was added to a microplate coated with IL-6 antibody. […] After developing for 30 minutes at room temperature, a stop solution was added, and the absorbance was read at 450 nm. The concentration of IL-6 was calculated based on the absorbance readings of an IL-6 standard curve.

For a further test, the system named is TNF-α. Put plainly: LPS-induced acute lung injury, serum TNF-α ELISA. To be noted: rats. How it is done: as §1, §2
The presence of TNF-α in undiluted rat serum from Example 23 was measured using the rat TNF-α Quantikine ELISA kit from R&D Systems (product#: RTA00) as follows: undiluted serum was added to a microplate coated with TNF-α antibody. […] After developing for 30 minutes at room temperature, a stop solution was added, and the absorbance was read at 450 nm. The concentration of TNF-α was calculated based on the absorbance readings of a TNF-α standard curve.

Where [2] appears, read: LPS 10 mg/kg i.t., 24 hours post, oral, 500 mg/kg.

As for `CCCC(=O)[O-].[Na+]` [Sodium Butyrate], in the test with IL-10, the “BAL IL-10 level, Mean ± SD” value turned out to be 154.84 ± 159.63 pg/mL. Moreover, the “lung homogenate MIP-2/CINC-3 level, Mean ± SD” value in the test on MIP-2/CINC-3 (setting [2]) is 464.00 ± 220.32 pg/mL. In the test on MIP-2/CINC-3 (LPS i.t., 500 mg/kg oral), the “reduction in CINC-3 level vs vehicle” value stood at 17.7%. In the test on IL-1β (setting [2]), the “serum IL-1β level, Mean ± SD” value came out at 22.58 ± 9.46 pg/mL. The “reduction in serum IL-1β vs vehicle” value in the test on IL-1β (LPS i.t., 500 mg/kg oral) was found to be 65.3%. In test [1] (score 0-4, 500 mg/kg), the “Infiltration of PMC” value stood at 2.75 ± 0.78 and the “Pulmonary Edema” value worked out at 2.35 ± 0.95. For the same compound, the “Overall lung tissue Severity” value in test [1] (score 0-4, H&E left lobe, 500 mg/kg) is 3.05 ± 0.42. In addition, the “BAL IL-6 level, Mean ± SD” value in the test on IL-6 (setting [2]) is 1933.30 ± 1744.23 pg/mL. The “reduction in the level of BAL IL-6 vs vehicle” value in the test on IL-6 (LPS i.t., 500 mg/kg oral) was determined as 37.7%. Moreover, in the test on TNF-α (LPS 10 mg/kg i.t., 24 hours post, oral 7 days pre-treatment, 500 mg/kg), the “serum TNF-α level, Mean ± SD” value is 3.35 ± 1.73 pg/mL. Besides, the “reduction in serum TNF-α level vs vehicle control” value in the test on TNF-α (LPS i.t., 500 mg/kg oral) is reported as 67.9%.
